Reference: ChEMBL document CHEMBL1201862, “PubChem BioAssay data set” (2004)
Calls of active or inactive are those of the source.

Legend:
[1] = target: T1, Kappa-type opioid receptor (Homo sapiens, UniProt P41145); experiment: SAR analysis of small molecule agonists of the kappa opioid receptor via a luminescent beta-arrestin assay. [Related pubchem assays (depositor defined):AID1777, AID1786, AID1966, AID2133, AID2136, AID2348, AID2352, AID2357, AID2359, AID2370, AID2420, AID2478, AID2491, AID2492, AID2493, AID2497, AID2498, AID2500, AID449737, AID488822, AID488842]; type: functional
T1 sequence (P41145 whole entry): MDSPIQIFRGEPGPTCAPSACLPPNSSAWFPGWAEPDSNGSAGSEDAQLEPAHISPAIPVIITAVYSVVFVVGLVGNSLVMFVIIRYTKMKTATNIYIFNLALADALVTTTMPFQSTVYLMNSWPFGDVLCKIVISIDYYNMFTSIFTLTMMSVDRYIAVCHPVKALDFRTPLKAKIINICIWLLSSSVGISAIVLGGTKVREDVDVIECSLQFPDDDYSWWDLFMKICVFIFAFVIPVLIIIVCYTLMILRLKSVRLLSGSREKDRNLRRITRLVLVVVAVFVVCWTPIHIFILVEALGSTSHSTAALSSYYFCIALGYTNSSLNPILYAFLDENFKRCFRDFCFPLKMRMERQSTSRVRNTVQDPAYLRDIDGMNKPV

[2] = target: T1, Kappa-type opioid receptor; experiment: KOR agonist analogs, imaging readout, SAR follow-up, image-based (AID 2359); type: functional
Mu-type opioid receptor [3] = target: T2, Mu-type opioid receptor (Homo sapiens, UniProt P35372); experiment: MOR agonists by imaging, SAR follow-up, image-based (AID 2352); type: functional
T2 sequence (P35372 whole entry): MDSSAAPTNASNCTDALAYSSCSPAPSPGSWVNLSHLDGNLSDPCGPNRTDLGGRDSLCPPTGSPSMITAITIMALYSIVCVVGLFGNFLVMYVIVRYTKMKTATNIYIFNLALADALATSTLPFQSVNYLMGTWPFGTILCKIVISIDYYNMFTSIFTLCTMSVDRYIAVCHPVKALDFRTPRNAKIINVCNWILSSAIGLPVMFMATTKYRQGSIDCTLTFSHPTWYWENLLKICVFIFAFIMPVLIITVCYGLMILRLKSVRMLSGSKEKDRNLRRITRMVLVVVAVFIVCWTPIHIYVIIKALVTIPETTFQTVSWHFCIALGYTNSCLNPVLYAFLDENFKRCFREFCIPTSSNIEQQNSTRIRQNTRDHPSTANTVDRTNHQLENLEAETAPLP

[4] = target: T3, Delta-type opioid receptor (Homo sapiens, UniProt P41143); experiment: DOR antagonists, SAR follow-up, image-based (AID 2357); type: functional
T3 sequence (P41143 whole entry): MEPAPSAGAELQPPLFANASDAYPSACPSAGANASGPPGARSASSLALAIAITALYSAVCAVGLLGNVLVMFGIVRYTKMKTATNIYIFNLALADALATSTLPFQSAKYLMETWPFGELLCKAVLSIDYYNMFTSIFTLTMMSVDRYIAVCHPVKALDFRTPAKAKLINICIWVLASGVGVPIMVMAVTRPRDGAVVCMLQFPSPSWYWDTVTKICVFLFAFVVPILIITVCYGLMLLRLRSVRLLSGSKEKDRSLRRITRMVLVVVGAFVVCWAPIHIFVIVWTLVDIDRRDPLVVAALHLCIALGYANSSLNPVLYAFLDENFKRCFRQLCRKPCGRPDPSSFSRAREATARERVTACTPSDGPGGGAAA

[5] = target: T3, Delta-type opioid receptor; experiment: HTS Image-Based Screen for Agonists of the DOR Receptor. [Related pubchem assays (depositor defined):AID1777, AID1786, AID2133]; type: functional
[6] = target: T1, Kappa-type opioid receptor; type: functional
[7] = target: T3, Delta-type opioid receptor; experiment: HTS Image-Based Screen for Antagonists of the DOR Receptor. [Related pubchem assays (depositor defined):AID1777, AID1785, AID1786, AID2133]; type: functional
Mu-type opioid receptor [8] = target: T2, Mu-type opioid receptor; experiment: MOR antagonists, SAR follow-up, image-based (AID 2420); type: functional;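 note: compounds added before stimulation of receptor with agonist DAMGO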
[9] = target: T1, Kappa-type opioid receptor; experiment: KOR antagonists by imaging, SAR follow-up, image-based (AID 2348); type: functional
[10] = target: T3, Delta-type opioid receptor; experiment: DOR agonists, SAR follow-up, image-based (AID 2370); type: functional
Mu-type opioid receptor [11] = target: T2, Mu-type opioid receptor; experiment: HTS Image-Based Screen for Agonists of the MOR Receptor. [Related pubchem assays (depositor defined):AID1777, AID1785, AID1786, AID2133]; type: functional
[12] = target: T1, Kappa-type opioid receptor; type: functional; remark: listed apart in the source
[13] = target: Scavenger receptor class B member 1 (Mus musculus, UniProt Q61009); experiment: inhibitors of SR-BI mediated HDL lipid uptake, dose response, ldlA[mSR-BI] cells, fluorescence, cherry pick (AID 493194); type: functional, cell-based;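 note: cellular uptake of fluorescent DiI-labeled HDL measured as cell fluorescence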
[14] = Luminescence Cell-Based Dose Response HTS to Identify Inhibitors of 5'UTR Stem-Loop Driven Prion Protein mRNA Translation in H4 Neuroglioblastoma Cells. [Related pubchem assays: 1827 (Project Summary), 1813 (Primary HTS)]; type: functional
[15] = inhibitors of SNCA 5'UTR-driven reporter translation, confirmation, H4 neuroglioma cells, luminescence (AID 1988); type: functional, cell-based
[16] = inhibitors of firefly luciferase expression or activity, dose response, H4 neuroglioma cells, luminescence (AID 1990); type: functional, cell-based
Vero = experiment: cells; type: functional, cell-based; settings: Chlorocebus sabaeus
[17] = target: T4, Voltage-gated N-type calcium channel alpha-1B subunit/Amyloid beta A4 precursor protein-binding family A member 1 (Homo sapiens, UniProt Q00975+Q02410); experiment: disruptors of Mint-PDZ/N-type channel peptide interaction – biochemical, HTRF, set 2, SAR follow-up (AID 434980); type: functional
T4 sequence (Q00975 whole entry): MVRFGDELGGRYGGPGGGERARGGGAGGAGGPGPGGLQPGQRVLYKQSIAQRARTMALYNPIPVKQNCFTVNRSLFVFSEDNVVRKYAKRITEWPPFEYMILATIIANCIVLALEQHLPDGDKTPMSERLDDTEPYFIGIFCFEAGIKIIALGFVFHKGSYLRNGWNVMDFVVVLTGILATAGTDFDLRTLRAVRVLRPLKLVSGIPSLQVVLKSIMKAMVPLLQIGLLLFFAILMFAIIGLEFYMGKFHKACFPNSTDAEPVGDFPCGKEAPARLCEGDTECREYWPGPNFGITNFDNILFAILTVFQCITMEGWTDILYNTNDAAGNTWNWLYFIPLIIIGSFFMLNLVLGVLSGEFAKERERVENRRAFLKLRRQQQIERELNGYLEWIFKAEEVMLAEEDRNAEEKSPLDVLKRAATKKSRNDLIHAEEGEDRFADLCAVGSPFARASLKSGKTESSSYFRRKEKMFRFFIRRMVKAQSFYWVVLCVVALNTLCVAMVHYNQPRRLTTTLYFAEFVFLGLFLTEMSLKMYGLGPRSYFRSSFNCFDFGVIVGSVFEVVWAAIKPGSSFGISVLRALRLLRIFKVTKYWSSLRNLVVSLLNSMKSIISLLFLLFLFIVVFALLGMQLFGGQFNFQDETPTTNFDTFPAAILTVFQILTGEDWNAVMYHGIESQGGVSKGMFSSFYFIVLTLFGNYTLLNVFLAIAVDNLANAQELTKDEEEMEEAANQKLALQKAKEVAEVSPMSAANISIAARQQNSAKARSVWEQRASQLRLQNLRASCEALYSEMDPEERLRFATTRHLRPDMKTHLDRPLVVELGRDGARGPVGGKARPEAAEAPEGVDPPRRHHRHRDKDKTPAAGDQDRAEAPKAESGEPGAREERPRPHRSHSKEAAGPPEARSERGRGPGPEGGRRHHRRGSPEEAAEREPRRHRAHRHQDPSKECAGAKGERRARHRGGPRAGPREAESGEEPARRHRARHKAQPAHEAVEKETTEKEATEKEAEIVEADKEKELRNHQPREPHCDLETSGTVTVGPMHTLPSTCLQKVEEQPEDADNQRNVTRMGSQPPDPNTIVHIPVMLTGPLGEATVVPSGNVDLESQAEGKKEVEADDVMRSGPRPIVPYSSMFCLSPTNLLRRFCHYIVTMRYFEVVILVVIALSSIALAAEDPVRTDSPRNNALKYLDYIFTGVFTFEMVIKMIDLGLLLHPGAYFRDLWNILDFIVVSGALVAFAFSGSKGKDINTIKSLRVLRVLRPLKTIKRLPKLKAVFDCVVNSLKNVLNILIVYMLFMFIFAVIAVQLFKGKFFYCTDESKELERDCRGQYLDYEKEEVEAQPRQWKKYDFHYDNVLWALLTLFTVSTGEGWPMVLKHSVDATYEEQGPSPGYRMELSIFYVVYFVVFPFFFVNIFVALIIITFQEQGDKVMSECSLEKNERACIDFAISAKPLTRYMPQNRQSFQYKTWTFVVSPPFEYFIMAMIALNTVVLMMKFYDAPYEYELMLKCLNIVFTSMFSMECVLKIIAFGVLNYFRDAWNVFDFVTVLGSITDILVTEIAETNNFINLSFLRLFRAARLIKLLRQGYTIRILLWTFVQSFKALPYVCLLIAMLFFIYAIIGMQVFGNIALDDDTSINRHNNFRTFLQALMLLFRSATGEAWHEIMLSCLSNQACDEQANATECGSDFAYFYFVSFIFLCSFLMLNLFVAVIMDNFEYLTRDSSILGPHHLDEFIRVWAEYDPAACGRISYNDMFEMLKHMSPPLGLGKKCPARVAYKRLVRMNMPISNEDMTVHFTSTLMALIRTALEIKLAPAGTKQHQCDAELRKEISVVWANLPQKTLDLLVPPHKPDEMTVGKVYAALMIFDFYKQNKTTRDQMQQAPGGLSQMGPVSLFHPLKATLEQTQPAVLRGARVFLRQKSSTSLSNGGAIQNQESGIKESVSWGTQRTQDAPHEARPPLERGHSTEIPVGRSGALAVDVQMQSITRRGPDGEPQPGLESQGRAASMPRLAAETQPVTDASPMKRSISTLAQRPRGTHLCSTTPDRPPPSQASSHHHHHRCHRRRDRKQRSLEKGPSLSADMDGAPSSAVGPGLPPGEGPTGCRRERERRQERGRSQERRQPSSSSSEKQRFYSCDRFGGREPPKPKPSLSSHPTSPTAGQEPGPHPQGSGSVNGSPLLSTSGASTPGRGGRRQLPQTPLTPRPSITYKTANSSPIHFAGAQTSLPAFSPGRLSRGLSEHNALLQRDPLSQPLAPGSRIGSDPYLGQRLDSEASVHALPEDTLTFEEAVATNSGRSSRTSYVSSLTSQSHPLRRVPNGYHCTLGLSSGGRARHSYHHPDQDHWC
T4 sequence (Q02410 whole entry): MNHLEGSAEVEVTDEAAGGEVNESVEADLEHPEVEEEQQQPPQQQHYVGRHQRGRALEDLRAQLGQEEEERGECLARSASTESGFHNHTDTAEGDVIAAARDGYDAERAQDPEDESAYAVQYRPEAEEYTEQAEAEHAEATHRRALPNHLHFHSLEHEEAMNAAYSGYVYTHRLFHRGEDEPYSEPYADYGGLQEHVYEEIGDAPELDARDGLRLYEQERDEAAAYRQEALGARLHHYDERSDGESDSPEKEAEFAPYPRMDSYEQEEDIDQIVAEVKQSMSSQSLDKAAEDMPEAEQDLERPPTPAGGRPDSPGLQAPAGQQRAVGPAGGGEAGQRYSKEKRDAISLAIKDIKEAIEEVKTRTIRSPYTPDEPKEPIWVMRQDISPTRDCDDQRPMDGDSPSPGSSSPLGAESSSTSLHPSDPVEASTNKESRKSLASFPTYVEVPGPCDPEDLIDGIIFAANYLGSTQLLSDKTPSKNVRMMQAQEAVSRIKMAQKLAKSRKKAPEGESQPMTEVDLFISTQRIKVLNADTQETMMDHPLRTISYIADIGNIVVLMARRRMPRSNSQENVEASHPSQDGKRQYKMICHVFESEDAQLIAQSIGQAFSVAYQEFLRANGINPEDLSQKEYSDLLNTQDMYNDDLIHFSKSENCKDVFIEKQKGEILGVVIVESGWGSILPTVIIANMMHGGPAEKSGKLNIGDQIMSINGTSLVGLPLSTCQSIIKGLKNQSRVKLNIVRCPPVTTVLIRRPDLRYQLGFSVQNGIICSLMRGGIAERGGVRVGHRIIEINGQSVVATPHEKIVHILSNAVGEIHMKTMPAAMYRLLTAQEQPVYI

[18] = target: T4, Voltage-gated N-type calcium channel alpha-1B subunit/Amyloid beta A4 precursor protein-binding family A member 1; experiment: disruptors of Mint-PDZ/N-type channel peptide interaction – biochemical, HTRF, SAR follow-up (AID 2489); type: functional
[19] = target: T1, Kappa-type opioid receptor; experiment: kappa opioid receptor blockers, cell-based, luminescence, beta-arrestin, SAR follow-up (AID 2285); type: functional
Wee1-like protein kinase = Wee1-like protein kinase (Homo sapiens, UniProt P30291); experiment: G2/M cell cycle arrest in HeLa, late-stage follow-up, mechanism study for Wee1 degradation inhibitor project, FACS, panel member Wee1 Degradation (AID 2088)
Wee1-like protein kinase, sequence (P30291 whole entry): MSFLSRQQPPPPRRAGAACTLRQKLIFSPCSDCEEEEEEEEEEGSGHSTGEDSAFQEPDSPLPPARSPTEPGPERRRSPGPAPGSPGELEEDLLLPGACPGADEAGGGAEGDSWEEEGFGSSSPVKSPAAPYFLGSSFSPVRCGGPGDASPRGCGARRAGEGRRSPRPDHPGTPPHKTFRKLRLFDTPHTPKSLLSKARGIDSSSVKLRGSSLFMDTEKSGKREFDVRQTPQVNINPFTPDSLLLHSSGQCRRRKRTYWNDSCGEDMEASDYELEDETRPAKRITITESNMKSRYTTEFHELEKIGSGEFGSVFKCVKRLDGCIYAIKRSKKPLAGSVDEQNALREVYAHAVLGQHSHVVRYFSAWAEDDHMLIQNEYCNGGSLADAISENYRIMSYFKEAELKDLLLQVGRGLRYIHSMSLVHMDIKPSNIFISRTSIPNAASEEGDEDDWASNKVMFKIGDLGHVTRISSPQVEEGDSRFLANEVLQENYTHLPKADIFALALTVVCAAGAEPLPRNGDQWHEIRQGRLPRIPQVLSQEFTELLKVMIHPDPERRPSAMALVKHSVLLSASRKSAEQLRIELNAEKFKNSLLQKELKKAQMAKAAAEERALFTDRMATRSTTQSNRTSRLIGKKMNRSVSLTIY

[20] = target: G2/mitotic-specific cyclin-B1 (Homo sapiens, UniProt P14635); experiment: G2/M cell cycle arrest in HeLa, late-stage follow-up, mechanism study for Wee1 degradation inhibitor project, FACS, panel member Cyclin B Degradation (AID 2088)
Trypsin = Trypsin (Sus scrofa, UniProt P00761); experiment: porcine trypsin inhibitors, dose response, selectivity assay for Rce1 protease inhibitor project, biochemical, quenched peptide fluorescence, cherry-pick (AID 488789)

SMILES: Clc1ccc(CSc2nnc(-c3ccccn3)n2Cc2ccco2)c(Cl)c1
- EC50 [1]: 1.86 µM (active)
- EC50 [2]: 0.929 µM (active)
- EC50 (Mu-type opioid receptor [3]): > 32 µM (inactive)
- IC50 [4]: > 32 µM (inactive)
- EC50 [5]: > 32 µM (inactive)
- EC50 [6]: 2210 nM
- IC50 [7]: > 32 µM (inactive)
- IC50 (Mu-type opioid receptor [8]): > 32 µM (inactive)
- IC50 [9]: > 32 µM (inactive)
- EC50 [10]: > 32 µM (inactive)
- EC50 (Mu-type opioid receptor [11]): > 32 µM (inactive)
- EC50 [12]: 1250 nM

SMILES: Cc1cc(SC(C)C(=O)Nc2ncc(Cl)cc2Cl)nc2ccccc12 (centres undefined)
- AC50 [13]: 633 nM (active)
- EC50 [14]: > 120 µM (not active)
- EC50 [15]: 15.1 µM (active)
- EC50 [16]: > 120 µM (not active)
- IC50 (Vero): 19.5 µM (active)

SMILES: COc1ccccc1CNC(=O)COC(=O)c1cccc2ccccc12
- IC50 [17]: 19.4 µM (active)
- IC50 [18]: > 56.8 µM (inactive)

SMILES: O=C(Cn1c(=O)c2cccn2c2cccnc21)NCCCN1CCN(c2ccc(F)cc2)CC1
- EC50 [2]: > 32 µM (inactive)
- EC50 (Mu-type opioid receptor [3]): > 32 µM (inactive)
- IC50 [4]: > 32 µM (inactive)
- IC50 (Mu-type opioid receptor [8]): > 32 µM (inactive)
- IC50 [9]: 15.2 µM (inactive)
- EC50 [10]: > 32 µM (inactive)
- IC50 [19]: > 10 µM (inactive)

SMILES: Cc1cc(NC(=O)c2cccc(F)c2)n(-c2nc(=O)cc(C)[nH]2)n1
- EC50 (Wee1-like protein kinase): > 49.7 µM (inactive)
- EC50 [20]: > 49.7 µM (inactive)

SMILES: Cc1ccc(S(=O)(=O)c2cn(C)c3cc(N4CCOCC4)c(F)cc3c2=O)cc1
- AC50 (Trypsin): 55.8 µM (active)
